Measured values reported in patent US9096586B2, “Therapeutic compounds” (Gilead Sciences, Inc., priority 2012, dated 2015).

Tested on: HIV-IIIb
Test: Test A: Antiviral Assays in MT4 Cells
Format: cell-based
Conditions: Human immunodeficiency virus 1, IIIB, MT4, 120 h, MT-4 cells infected with HIV-IIIb (0.004 m.o.i.), 5 days incubation, CellTiter-Glo readout
Description: Test A: Antiviral Assays in MT4 Cells
For the antiviral assay utilizing MT-4 cells, 0.4 μL of […] test concentration of 3-fold serially diluted compound in DMSO was added to 40 μL of cell growth medium (RPMI 1640, 10% FBS, 1% penicilline/Streptomycine, 1% L-Glutamine, 1% HEPES) in each well of 384-well assay plates (10 concentrations) in quadruplicate.
1 mL aliquots of 2×10e6 MT-4 cells are pre-infected for 1 and 3 hrs respectively, @ 37° C. with 25 uL (MT4) or of either cell growth medium (mock-infected) or a fresh 1:250 dilution of an HIV-IIIb concentrated ABI stock (0.004 m.o.i. for MT4 cells). Infected and uninfected cells are diluted in cell growth medium and 35 uL of 2000 (for MT4) cells is added to each well of the assay plates.
Assay plates were then incubated in a 37° C. incubator. After 5 days of incubation, 25 μl of 2× concentrated CellTiter-Glo™ Reagent (catalog #G7573, Promega Biosciences, Inc., Madison, Wis.) was added to each well of the assay plate. Cell lysis was carried out by incubating at room temperature for 2-3 min and then chemiluminescence was read using the Envision reader (PerkinElmer).
Accordingly, the compounds disclosed herein (e.g. compound of the invention) may be useful for treating the proliferation of the HIV virus, treating AIDS or delaying the onset of AIDS or ARC symptoms.

Structure (SMILES) | EC50 [nM]
Cc1cc2nc(-c3cnc4[nH]cc(C)c4c3)sc2c(-c2ccc(Cl)cc2)c1[C@](C)(OC(C)(C)C)C(=O)O [Compound 112, (S)-methyl 2-tert-butoxy-2-(7-(4-chlorophenyl)-5-methyl-2-(3-methyl-1H-pyrrolo[2,3-b]pyridin-5-yl)benzo[d]thiazol-6-yl)acetic acid] | 28
Cc1cc2nc(N3CCC(Oc4ccccc4)C3)sc2c(-c2ccc(Cl)cc2)c1[C@H](OC(C)(C)C)C(=O)O (stereo partly drawn) [Compound 126, (2S)-2-tert-butoxy-2-(7-(4-chlorophenyl)-5-methyl-2-(3-phenoxypyrrolidin-1-yl)benzo[d]thiazol-6-yl)acetic acid] | 722
Cc1cc2nc(-c3ccnc(-c4cnn(Cc5ccccc5)c4)c3)sc2c(-c2ccc(Cl)cc2)c1[C@H](OC(C)(C)C)C(=O)O [Compound 150] | 91
